Laboratory results as given in patent US20070004634A1 (Novo Nordisk A/S, priority 1998, published 2007).
No end group written: not given here.

Tests used:
[1] = system: free fat cells (adipocytes); test: Adipocyte / free fat cell (FFC) assay, 3H glucose incorporation into lipid; conditions: FFC assay potency grade; 0, + to ++++++, −
Description: Incorporation of ^3H into the lipid phase was determined by partitioning of lipid phase into a scintillant mixture, which excludes water-soluble ^3H products.

IR = IR (Homo sapiens, UniProt P06213); test: Phage ELISA, binding of phage clones to IR (ratio over background); conditions: ratio of IR divided by ratio of IGF-1R
IGF-1R = IGF-1R (Homo sapiens, UniProt P08069); test: Phage ELISA, binding of phage clones to IGF-1R (ratio over background); conditions: ratio of IGF-1R divided by ratio of IR
Description: HIT indicates binder; CAND indicates binder candidate; LDH indicates binding to lactate dehydrogenase (negative control); Sp/Irr indicates the ratio of specific binding over non-specific binding.
Sp/Irr=the ratio of specific binding over non-specific binding; LDH=lactate dehydrogenase (negative control).
For phage pools, cells from frozen stocks were grown and phage were prepared as described above. For analysis of individual clones, colonies were picked and phage prepared as described above. Subsequent steps were the same for pooled and clonal phage. Microtiter wells were coated and blocked as described above. […] Phage resuspended in MPBS (PBS containing 2% non-fat milk) were added to wells (100 μl/well) and incubated at room temperature for 1 h. The phage solution was then removed, and the wells were washed three times with PBS at room temperature.
Anti-M13 antibody conjugated to horseradish peroxidase (Pharmacia Biotech) was diluted 1:3000 in MPBS and added to each well (100 μl/well). Incubation was for another hour at room temperature, followed by PBS washes as described. Color was developed by addition of ABTS solution (100 μl/well; Boehringer). […] Data points were averaged after subtraction of appropriate blanks. A clone was considered “positive” if the A405 of the well was ≧2-fold over background.

Row | Compound | FFC [1] | Comparisons IR/IGF-1R (IR) | Comparisons IGF-1R/IR (IGF-1R)
1 | CC(C)[C@H](NC(=O)[C@H](Cc1ccccc1)NC(=O)[C@H](Cc1c[nH]c2ccccc12)NC(=O)[C@H](CC(=O)O)NC(=O)[C@H](Cc1ccc(O)cc1)NC(=O)[C@H](Cc1ccccc1)NC(=O)[C@H](CC(N)=O)NC(=O)[C@H](CCC(=O)O)NC(=O)[C@H](Cc1c[nH]cn1)NC(=O)[C@@H](N)Cc1ccccc1)C(=O)N[C@@H](CCCNC(=N)N)C(=O)N[C@@H](CCC(N)=O)C(=O)N[C@H](C(=O)N[C@@H](CO)C(=O)N[C@@H](CCCCN)C(=O)N[C@@H](CCCCN)C(=O)NC[C@H](NC(=O)[C@H](CCCCN)NC(=O)[C@H](CCCCN)NC(=O)[C@H](CO)NC(=O)[C@@H](NC(=O)[C@H](CCC(N)=O)NC(=O)[C@H](CCCNC(=N)N)NC(=O)[C@@H](NC(=O)[C@H](Cc1ccccc1)NC(=O)[C@H](Cc1c[nH]c2ccccc12)NC(=O)[C@H](CC(=O)O)NC(=O)[C@H](Cc1ccc(O)cc1)NC(=O)[C@H](Cc1ccccc1)NC(=O)[C@H](CC(N)=O)NC(=O)[C@H](CCC(=O)O)NC(=O)[C@H](Cc1c[nH]cn1)NC(=O)[C@@H](N)Cc1ccccc1)C(C)C)C(C)C)C(=O)O)C(C)C [Peptide S128] | ++ | – | –
2 | CC(C)[C@H](NC(=O)[C@H](Cc1ccccc1)NC(=O)[C@H](Cc1c[nH]c2ccccc12)NC(=O)[C@H](CC(=O)O)NC(=O)[C@H](Cc1ccc(O)cc1)NC(=O)[C@H](Cc1ccccc1)NC(=O)[C@H](CC(N)=O)NC(=O)[C@H](CCC(=O)O)NC(=O)[C@H](Cc1c[nH]cn1)NC(=O)[C@@H](N)Cc1ccccc1)C(=O)N[C@@H](CCCNC(=N)N)C(=O)N[C@@H](CCC(N)=O)C(=O)N[C@H](C(=O)N[C@@H](CO)C(=O)N[C@@H](CCCCN)C(=O)N[C@@H](CCCCN)C(=O)NCCCC[C@H](NC(=O)[C@H](CCCCN)NC(=O)[C@H](CCCCN)NC(=O)[C@H](CO)NC(=O)[C@@H](NC(=O)[C@H](CCC(N)=O)NC(=O)[C@H](CCCNC(=N)N)NC(=O)[C@@H](NC(=O)[C@H](Cc1ccccc1)NC(=O)[C@H](Cc1c[nH]c2ccccc12)NC(=O)[C@H](CC(=O)O)NC(=O)[C@H](Cc1ccc(O)cc1)NC(=O)[C@H](Cc1ccccc1)NC(=O)[C@H](CC(N)=O)NC(=O)[C@H](CCC(=O)O)NC(=O)[C@H](Cc1c[nH]cn1)NC(=O)[C@@H](N)Cc1ccccc1)C(C)C)C(C)C)C(=O)O)C(C)C [Peptide S145] | ++ | – | –
3 | CC(C)[C@H](NC(=O)[C@H](Cc1ccccc1)NC(=O)[C@H](Cc1c[nH]c2ccccc12)NC(=O)[C@H](CC(=O)O)NC(=O)[C@H](Cc1ccc(O)cc1)NC(=O)[C@H](Cc1ccccc1)NC(=O)[C@H](CC(N)=O)NC(=O)[C@H](CCC(=O)O)NC(=O)[C@H](Cc1c[nH]cn1)NC(=O)[C@H](Cc1ccccc1)NC(=O)[C@@H](N)CNC(=O)CON=CCCCCC=NOCC(=O)NC[C@H](N)C(=O)N[C@@H](Cc1ccccc1)C(=O)N[C@@H](Cc1c[nH]cn1)C(=O)N[C@@H](CCC(=O)O)C(=O)N[C@@H](CC(N)=O)C(=O)N[C@@H](Cc1ccccc1)C(=O)N[C@@H](Cc1ccc(O)cc1)C(=O)N[C@@H](CC(=O)O)C(=O)N[C@@H](Cc1c[nH]c2ccccc12)C(=O)N[C@@H](Cc1ccccc1)C(=O)N[C@H](C(=O)N[C@@H](CCCNC(=N)N)C(=O)N[C@@H](CCC(N)=O)C(=O)N[C@H](C(=O)N[C@@H](CO)C(=O)N[C@@H](CCCCN)C(=O)N[C@@H](CCCCN)C(N)=O)C(C)C)C(C)C)C(=O)N[C@@H](CCCNC(=N)N)C(=O)N[C@@H](CCC(N)=O)C(=O)N[C@H](C(=O)N[C@@H](CO)C(=O)N[C@@H](CCCCN)C(=O)N[C@@H](CCCCN)C(N)=O)C(C)C [Peptide S169] | ++ | – | –
4 | CC(C)[C@H](NC(=O)[C@H](Cc1ccccc1)NC(=O)[C@H](Cc1c[nH]c2ccccc12)NC(=O)[C@H](CC(=O)O)NC(=O)[C@H](Cc1ccc(O)cc1)NC(=O)[C@H](Cc1ccccc1)NC(=O)[C@H](CC(N)=O)NC(=O)[C@H](CCC(=O)O)NC(=O)[C@H](Cc1c[nH]cn1)NC(=O)[C@H](Cc1ccccc1)NC(=O)[C@@H](N)CNC(=O)CON=CCCCCCCC=NOCC(=O)NC[C@H](N)C(=O)N[C@@H](Cc1ccccc1)C(=O)N[C@@H](Cc1c[nH]cn1)C(=O)N[C@@H](CCC(=O)O)C(=O)N[C@@H](CC(N)=O)C(=O)N[C@@H](Cc1ccccc1)C(=O)N[C@@H](Cc1ccc(O)cc1)C(=O)N[C@@H](CC(=O)O)C(=O)N[C@@H](Cc1c[nH]c2ccccc12)C(=O)N[C@@H](Cc1ccccc1)C(=O)N[C@H](C(=O)N[C@@H](CCCNC(=N)N)C(=O)N[C@@H](CCC(N)=O)C(=O)N[C@H](C(=O)N[C@@H](CO)C(=O)N[C@@H](CCCCN)C(=O)N[C@@H](CCCCN)C(N)=O)C(C)C)C(C)C)C(=O)N[C@@H](CCCNC(=N)N)C(=O)N[C@@H](CCC(N)=O)C(=O)N[C@H](C(=O)N[C@@H](CO)C(=O)N[C@@H](CCCCN)C(=O)N[C@@H](CCCCN)C(N)=O)C(C)C [Peptide S172] | +++ | – | –
5 | SACQFDCHENFYDWFARQVSGGAAYG [H2CA-4-H8-IGFR] | – | 0.1 | 9.4
6 | SGAKVIVVTGDSGDPFYHKLSELLQGS [B6Hα-2-C10-IR] | – | 0.2 | 5.3
7 | SQAGSAFYAWFDQVLRTVHSA [20E2Bβ-4-G6-IR] | – | 0.3 | 3.3
8 | SRAKVEAEMPDSGDPFYHKLSELLASG [Peptide B6Hα-1-A3-IR] | – | 0.3 | 3.3
9 | SRVAATKEKRPSDDPFYHKLSELLQGS [Peptide B6Hα-3-F7-IR] | – | 0.3 | 3.1
10 | SSCDGAGHESFYEWFVRQVSGCRSV [H2CA-3-C8-IGFR] | – | 0.2 | 4.8
11 | SSETAKMVTGTRDDPFYHKLSELVQGS [Peptide B6Hα-D8-IR] | – | 0.3 | 3.0
12 | SSIGGGEHENFYDWFSRQLSQSPPLK [H2CA-4-F7-IGFR] | – | 0.2 | 4.1
13 | SSYGCDGFYLMLFSLGLVASQELEC [20C-3-A1-IGFR] | – | 0.1 | 13.7
14 | TFYSCLASLLTGTPQPNRGPWERCR [20C-3-G3-IGFR] | – | <0.1 | 27.0
15 | TLDGGSFEEQFYDWFVRQLSYRTNPD [H2CA-4-G11-IGFR] | – | 0.3 | 3.9
16 | TLRSPTFYDWLEMVLTHGQGG [20E2B-1-A8-IGFR] | – | 0.2 | 5.0
17 | TSEVQRRSQDNFYDWFVAQVA [Peptide A6S-3-E2-IR] | – | 0.4 | 2.5
18 | VATSQGFYSGLSELLQGGGNV [20E2B-3-E12-IGFR] | – | 0.1 | 7.3
19 | VDTPAQVGWNRLWSVGPGEHWYTDDPFYH*LSELLRESGA [Peptide B6L-3-G6-IR] | – | 0.7 | 1.4
20 | VERSASSQDGNFYDWFVVQIR [Peptide A6S-2-D1-IR] | – | 0.4 | 2.6
21 | VGYQGQGDENFYDWFIRQVSGRLGVQ [H2CA-4-F5-IGFR] | – | 0.1 | 12.3
22 | VNQSGSIHENFYDWFERQVSHQRGVR [H2CA-4-F10-IGFR] | – | 0.2 | 5.9
23 | VVTPVNFYRALEALVRG.RLG (VVTPVNFYRALEALVRGXRLG; not fully specified; printed as VVTPVNFYRALEALVRG.RLG; X: residue not identified in the source; ends and bridges not checked) [20E2B-2-B11-IGFR] | – | 0.1 | 9.4
24 | W.GYAWLS [40F-4-D10-IGFR] | – | 0.1 | 11.7
25 | YRGMLVLGRISDGAG#VASEPPARIGRKVFAVNFYDWFV [Peptide A6L-0-E4-IR] | – | 0.1 | 13.0
26 | YRGMLVLGRISGGAGKAASERPARIGQKVSAVNFYDWFV [Peptide A6L-0-H3-IR] | – | 0.1 | 13.0
27 | YRGMLVLGRSSDGAGKVAFERPARIGQTVFAVNFYDWFV [Peptide A6L-0-E6-IR] | – | 0.1 | 17.0
28 | YSCGDGFYSLLSDLLGGQFRC [20E2B-4-H12-IGFR] | – | 0.1 | 12.8
